This is an account of results in publication PMC9403987 (Frontiers in Oncology, 2022).

What is called IC50 is the concentration needed to halve the response being measured. Low readings indicate greater potency, high ones weaker potency. A word on the Ki: it is the equilibrium dissociation constant of an inhibitor or competing ligand from its target. A high value points to lower affinity.

One experiment has as its system MHCC97L. The experiment in a line: Cell proliferation assay. The class given is cell-based. Particulars: Homo sapiens, liver, hepatocellular carcinoma, 72 hours.
In a further experiment the test system is U87-MG. More on the design: method as in PMID 26149830. Particulars: orthotopic U87-MG GBM rat xenografts; cited from earlier work.
The target in a further experiment is T1, CDK4–cyclin D1 (Homo sapiens, UniProt P11802).
T1 construct: purchased Invitrogen
T1 sequence (P11802 whole entry): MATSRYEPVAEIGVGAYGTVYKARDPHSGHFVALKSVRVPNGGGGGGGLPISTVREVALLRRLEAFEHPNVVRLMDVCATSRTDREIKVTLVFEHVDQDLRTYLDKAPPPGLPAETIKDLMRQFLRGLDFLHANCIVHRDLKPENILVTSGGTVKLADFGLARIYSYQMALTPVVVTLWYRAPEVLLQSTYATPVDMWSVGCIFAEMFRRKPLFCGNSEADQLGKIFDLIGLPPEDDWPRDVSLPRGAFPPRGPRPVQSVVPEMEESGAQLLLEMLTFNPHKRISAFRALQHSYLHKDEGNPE
T1 sequence (P24385 whole entry partner): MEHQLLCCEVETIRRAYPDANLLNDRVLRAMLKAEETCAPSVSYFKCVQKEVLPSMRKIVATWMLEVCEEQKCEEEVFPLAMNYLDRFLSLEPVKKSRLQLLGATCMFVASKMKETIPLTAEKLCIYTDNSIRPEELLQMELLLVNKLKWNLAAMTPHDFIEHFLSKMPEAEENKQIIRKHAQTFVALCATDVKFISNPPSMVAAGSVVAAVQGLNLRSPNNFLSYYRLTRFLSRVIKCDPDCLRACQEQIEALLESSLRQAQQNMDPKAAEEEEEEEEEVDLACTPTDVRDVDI
Briefly: LANCE Ultra TR-FRET enzymatic profiling assay. The class given is biochemical. How it is done:
Results were calculated as half-maximal inhibitory concentration (IC50) and inhibition constant (K i). IC50 and K i values were determined using the XLfit 205 model (ID Business Solutions Ltd, Guildford, UK) curve-fitting add-on for Microsoft Excel (Microsoft Corporation, Redmond, WA, USA).
In general terms: Time-resolved FRET reads energy transfer from a long-lived donor to a nearby acceptor.

A further experiment concerns the target T2, CDK6–cyclin D1 (Homo sapiens, UniProt Q00534).
T2 construct: purchased Invitrogen
The experiment in a line: LANCE Ultra TR-FRET enzymatic profiling assay. The experiment is classed as biochemical. The protocol: Results were calculated as half-maximal inhibitory concentration (IC50) and inhibition constant (K i).

In another experiment the test system is Colo320DM. Briefly: Cell proliferation assay. The class given is cell-based, Homo sapiens. The following applies: colon carcinoma, 72 hours. The procedure, abridged: (§1)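 Tumor cells were seeded at 4000 per well, incubated overnight at 37°C with 5% CO2, then exposed to test compounds. Proliferation was measured either by counting DAPI-stained nuclei (cells fixed in 4% formaldehyde, permeabilized with 0.2% Triton X-100, 1 μg/mL DAPI, imaged) or by CellTiter-Glo luminescence of metabolically active cells.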

In a further experiment the test system is PLC/PRF/5. The experiment in a line: Cell proliferation assay. The experiment is classed as cell-based, Homo sapiens. The following applies: PLC/PRF/5, liver, hepatocellular carcinoma, 72 hours. The procedure, abridged:
as §1

T2 sequence (Q00534 whole entry): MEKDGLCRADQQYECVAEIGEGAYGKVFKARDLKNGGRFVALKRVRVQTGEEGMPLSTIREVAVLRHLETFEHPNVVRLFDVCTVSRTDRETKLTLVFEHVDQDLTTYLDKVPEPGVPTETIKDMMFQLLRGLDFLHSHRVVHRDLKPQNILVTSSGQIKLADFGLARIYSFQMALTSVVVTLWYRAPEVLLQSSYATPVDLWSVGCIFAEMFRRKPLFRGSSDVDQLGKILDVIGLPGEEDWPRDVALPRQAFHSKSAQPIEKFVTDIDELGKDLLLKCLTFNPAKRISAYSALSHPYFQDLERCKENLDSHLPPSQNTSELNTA
T2 sequence (P24385 whole entry partner): as the sequence (P24385 whole entry partner) above
Method for MHCC97L: To quantify cell proliferation, either the nuclei of live cells were counted following staining with 4’,6-diamidino-2-phenylindole (DAPI; Sigma-Aldrich, Burlington, MA, USA), or metabolically active cells were detected using a CellTiter-Glo assay (Promega Corporation, Madison, WI, USA). Cells from a range of human and mammalian tumor cell lines (American Type Culture Collection, Manassas, VA, USA) were seeded at 4000 cells per well in 100 μL of culture medium in a 96-well plate and incubated overnight at 37°C with 5% CO2. […] In the DAPI staining method, cells were washed using 1× phosphate-buffered saline (PBS; Gibco Thermo Fisher Scientific, Waltham, MA, USA), fixed with 4% formaldehyde, permeabilized with 0.2% Triton X-100 (Sigma-Aldrich), washed again, and stained with 1 μg/mL DAPI to visualize cell nuclei. Cells were washed with 1× PBS three times, and 100 μL 1× PBS was added to each well. Plates were scanned using an IN Cell Analyzer 2200 (GE Healthcare Life Sciences, Chicago, IL, USA) and the number of cells per well was recorded. In the CellTiter-Glo assay, 60 μL of CellTiter-Glo luminescent solution was added to each well after incubation with the test compounds, and the assay plate was scanned using a Tecan Infinite M1000 PRO microplate reader (Tecan Group AG, Männedorf, Switzerland) to record luminescent signals.

Regarding `CCN1CCN(Cc2ccc(Nc3ncc(F)c(-c4cc(F)c5nc(C)n(C(C)C)c5c4)n3)nc2)CC1` [Abemaciclib, abemaciclib, reference compound], in the experiment with MHCC97L, the IC50 turned out to be 236 nM. Moreover, the “Increase in survival time compared to vehicle control” value in the experiment on U87-MG is recorded as 37.4%.

Take `CC1=Nc2c(F)cc(-c3nc(Nc4ccc(C5CCN(C)CC5)cn4)ncc3F)cc2C12CCCC2` [GLR2007]: the Ki at CDK4–cyclin D1 (CDK4/CyD1) is less than 0.1 nM; on CDK6–cyclin D1 (CDK6/CyD1), less than 0.08 nM. The IC50 against CDK4–cyclin D1 (CDK4/CyD1, 11 concentrations in duplicates) was found to be 0.22 nM; against CDK6–cyclin D1 (CDK6/CyD1, 11 concentrations in duplicates) it was 0.53 nM; in the experiment with Colo320DM, 1140 nM; with PLC/PRF/5 it was 302 nM.
